The structures appear in SMILES notation.

We go through 40 compounds from patent US20080249130A1, “Gut microsomal triglyceride transport protein inhibitors” (Sirtris Pharmaceuticals, Inc., priority 2007, published 2008).

For one assay, the system named is secretion of ApoB by HepG2 cells. Nature of the assay: ApoB secretion inhibition assay in HepG2 cells (ApoB ELISA). It is filed as cell-based, human. The note with it: Homo sapiens, HepG2, Table 6, assay of Example 2; read-out: IC50 ApoB Assay. As to the method:
The ability of the compounds of the present invention to inhibit the secretion of ApoB can be determined using the following cell-based assay, which measures the secretion of ApoB by HepG2 cells. ApoB has two possible metabolic fates: entrance into the lipoprotein assembly pathway within the lumen of the endoplasmic reticulum (ER), or degradation in the cytoplasm by the ubiquitin-dependent proteasome. The destiny of ApoB is determined by the relative availability of individual lipids, which is controlled by MTP (Davis, Biochim. Biophys. Acta, 1999, 1440, 1-31).
HepG2 cells (ATCC, HB-8065) are seeded in 96-well plates in DMEM with 10% FBS+pen/strep at a density of 1×10^5 cells/well (100 μl /well). Twenty-four hours after seeding, the plate is aspirated and the media changed to DMEM with 1% BSA and pen/strep, and the cells are serum-starved for 24 hours. After 24 hour serum-starvation, the plate is aspirated again and the cells are then treated for 24 hours with or without compound in DMEM with 1% BSA, 0.3 mM OA (OA complexed to BSA at a 2:1 ratio) and pen/strep. The final concentration of DMSO in the assay (from compound and control) is 0.1%. After 24 hour treatment, conditioned media is collected in an empty 96-well plate.
Cellular viability is measured using the cell permeable dye, AlamarBlue™. This dye undergoes electron reduction in viable cells but not dead cells. The reduced dye product gives a fluorescent signal which can be monitored with a fluorescence plate reader (excitation 545 nm and emission 575 nm). The amount of fluorescence generated in a given well is proportional to the number of viable cells. After collection, the 96-well plate is re-fed with 100 μl media (DMEM with 10% FBS) and 10 μl Alamar Blue™ per well, incubated for 2 hours and then read in a fluorescence plate reader.
ApoB secretion from HepG2 cells is quantitated by testing the conditioned media at […] using an ApoB ELISA kit (ALerCHEK) according to the manufacturer's instructions. The ELISA assay for ApoB is performed as follows: a polyclonal antibody against human ApoB (Chemicon) is diluted 1:1000 in carbonate-bicarbonate buffer and 100 μl are added to each well of a 96-well plate (NUNC). After 5 hours incubation at room temperature, the antibody solution is removed and wells are washed four times with PBS/0.05% TweenD 20 (Cayman Chemical Co.). Non-specific sites on the plastic plate are blocked by incubating wells for 1 to 1.5 hours in a solution of 0.5% BSA and 0.1% TweenD 20 made in PBS. One hundred microliters of a 1:20 dilution of growth medium from the HepG2 cells (made in 0.004% TweenD 20/1% BSA in PBS) is added to each well and incubated for 3 hours at room temperature. Wells are aspirated and washed four times (0.05% TweenD 20 in PBS) prior to adding 100 μl of a 1:1000 dilution (5 μg/ml) of the secondary antibody, mouse anti-human ApoB (Chemicon). After 2 hours incubation at room temperature, this solution is aspirated and the wells are again washed 4 times as above. One hundred microliters of peroxidase-conjugated affinity purified goat anti-mouse IgG (H+L) (Jackson ImmunoResearch Laboratories) (1:10,000 dilution in PBS/1% BSA/0.1% TweenD 20) is then added to each well and incubated for 1 hour at room temperature. After aspirating, the wells are washed 4 times as above and 50 μl of 1-step Ultra TMB ELISA reagent (Pierce) is added to each well and incubated for 5 minutes. The reaction is stopped by the addition of 50 μl of 2 NH2SO4 and absorbance of each well is read at 450 nm.
Regarding `O=C(N[C@H](C(=O)NCC1CC1)c1ccccc1)c1nc2ccc(NC(=O)c3ccccc3-c3cn4ccsc4n3)cc2s1` [Compound 62], the IC50 was 286 nM.

As to `O=C(N[C@H](C(=O)NC1CCCCC1)c1ccccc1)c1nc2ccc(NC(=O)c3ccccc3-c3cn4ccsc4n3)cc2s1` [Compound 63], the half-maximal inhibitory concentration (IC50) came to 82 nM.

Take `Cc1cccc(C(=O)NCC23CCC(C(=O)N[C@H](C(=O)N4CCCC4)c4ccccc4)(CC2)CC3)c1-c1ccc(C(C)(C)C)cc1` [Compound 65]: the IC50 was 5.2 nM.

For `Cc1cccc(C(=O)NCC23CCC(C(=O)N[C@H](C(=O)NCC4CC4)c4ccccc4)(CC2)CC3)c1-c1ccc(C(C)(C)C)cc1` [Compound 69], the IC50 stood at 8.9 nM.

For the compound `Cc1cccc(C(=O)NCC23CCC(C(=O)N[C@H](C(=O)N(C)C(C)C)c4ccccc4)(CC2)CC3)c1-c1ccc(C(C)(C)C)cc1` [Compound 70], the IC50 is 13.8 nM.

On to `Cc1cccc(C(=O)NCC23CCC(C(=O)N[C@H](C(=O)NCC(C)C)c4ccccc4)(CC2)CC3)c1-c1ccc(C(C)(C)C)cc1` [Compound 71], for which the IC50 came to 14.2 nM.

`Cc1cccc(C(=O)NCC23CCC(C(=O)N[C@H](C(=O)N(C)CC(C)C)c4ccccc4)(CC2)CC3)c1-c1ccc(C(C)(C)C)cc1` [Compound 72]: the IC50 was 21.8 nM.

Regarding `CCCCN(C)C(=O)[C@@H](NC(=O)C12CCC(CNC(=O)c3cccc(C)c3-c3ccc(C(C)(C)C)cc3)(CC1)CC2)c1ccccc1` [Compound 74], the IC50 turned out to be 19.8 nM.

Regarding `COc1cccc(C(=O)Nc2ccc3nc(C(=O)N[C@H](C(=O)N(C)Cc4ccc(F)cc4)c4ccccc4)sc3c2)c1-c1ccc(C(C)C)cc1` [Compound 76], the IC50 amounted to 2.8 nM.

For the compound `COc1cccc(C(=O)Nc2ccc3nc(C(=O)N[C@H](C(=O)N(C)Cc4ccc(F)cc4)c4ccccc4)sc3c2)c1-c1ccc(C(F)(F)F)cc1` [Compound 80], the IC50 was found to be 1.6 nM.

Turning to `CC(C)(C)c1ccc(-c2ccccc2C(=O)Nc2nc(-c3ccc(C(=O)N[C@H](C(=O)NCC4CC4)c4ccccc4)cc3)cs2)cc1` [Compound 81], the IC50 was found to be 61.1 nM.

In the case of `CC(C)CNC(=O)[C@@H](NC(=O)c1ccc(-c2csc(NC(=O)c3ccccc3-c3ccc(C(C)(C)C)cc3)n2)cc1)c1ccccc1` [Compound 82], the IC50 was 197 nM.

Consider `Cc1cccc(C(=O)Nc2nc(-c3ccc(C(=O)N[C@H](C(=O)N(C)CC(C)C)c4ccccc4)cc3)cs2)c1-c1ccc(C(C)(C)C)cc1` [Compound 87], for which the IC50 stood at 339 nM.

For `CCCN(C)C(=O)[C@@H](NC(=O)c1ccc(-c2csc(NC(=O)c3cccc(C)c3-c3ccc(C(C)(C)C)cc3)n2)cc1)c1ccccc1` [Compound 88], the IC50 was determined as 81.3 nM.

In the case of `Cc1cccc(C(=O)Nc2nc(-c3ccc(C(=O)N[C@H](C(=O)N4CCCC4)c4ccccc4)cc3)cs2)c1-c1ccc(C(C)C)cc1` [Compound 89], the IC50 was determined as 8.8 nM.

Take `Cc1cccc(C(=O)Nc2nc(-c3ccc(C(=O)N[C@H](C(=O)N(C)CC(C)C)c4ccccc4)cc3)cs2)c1-c1ccc(C(C)C)cc1` [Compound 90]: the IC50 worked out at 115 nM.

Turning to `CC(C)CN(C)C(=O)[C@@H](NC(=O)c1ccc(-c2csc(NC(=O)c3ccccc3-c3ccc(C(C)(C)C)cc3)n2)cc1)c1ccccc1` [Compound 91], the IC50 turned out to be 422 nM.

Regarding `CCCN(C)C(=O)[C@@H](NC(=O)c1ccc(-c2csc(NC(=O)c3ccccc3-c3ccc(C(C)(C)C)cc3)n2)cc1)c1ccccc1` [Compound 92], the IC50 is 110 nM.

Take `CC(C)N(C)C(=O)[C@@H](NC(=O)c1ccc(-c2csc(NC(=O)c3ccccc3-c3ccc(C(C)(C)C)cc3)n2)cc1)c1ccccc1` [Compound 93]: the IC50 came out at 89.7 nM.

Take `CC(C)c1ccc(-c2ccccc2C(=O)Nc2nc(-c3ccc(C(=O)N[C@H](C(=O)N4CCCC4)c4ccccc4)cc3)cs2)cc1` [Compound 94]: the IC50 stood at 18.5 nM.

In the case of `CCCN(C)C(=O)[C@@H](NC(=O)c1ccc(-c2csc(NC(=O)c3ccccc3-c3ccc(C(C)C)cc3)n2)cc1)c1ccccc1` [Compound 95], the IC50 is 228 nM.

Consider `Cc1cccc(C(=O)NCC23CCC(C(=O)NC(C(=O)N4CCCC4)c4ccccc4)(CC2)CC3)c1-c1ccc(C(C)C)cc1` (stereo not drawn) [Compound 96], for which the IC50 was found to be 11 nM.

In the case of `CCCN(C)C(=O)[C@@H](NC(=O)c1ccc(-c2csc(NC(=O)c3cccc(C)c3-c3ccc(C(C)C)cc3)n2)cc1)c1ccccc1` [Compound 97], the IC50 was found to be 143 nM.

On to `Cc1cccc(C(=O)Nc2nc(-c3ccc(C(=O)N[C@H](C(=O)N(C)C(C)C)c4ccccc4)cc3)cs2)c1-c1ccc(C(C)C)cc1` [Compound 98], for which the IC50 was determined as 49.7 nM.

Regarding `CC(C)c1ccc(-c2ccccc2C(=O)Nc2nc(-c3ccc(C(=O)N[C@H](C(=O)N(C)C(C)C)c4ccccc4)cc3)cs2)cc1` [Compound 99], the IC50 is 121 nM.

Turning to `CC(C)(C)c1csc(-c2ccccc2C(=O)NCC23CCC(C(=O)N[C@H](C(=O)N4CCCC4)c4ccccc4)(CC2)CC3)n1` [Compound 100], the IC50 stood at 112 nM.

With `CCCCN(C)C(=O)[C@@H](NC(=O)C12CCC(NC(=O)c3ccccc3-c3ccc(C(C)(C)C)cc3)(CC1)CC2)c1ccccc1` [Compound 101], the IC50 was determined as 11.7 nM.

For `CC(C)CN(C)C(=O)[C@@H](NC(=O)C12CCC(NC(=O)c3ccccc3-c3ccc(C(C)(C)C)cc3)(CC1)CC2)c1ccccc1` [Compound 102], the IC50 is 34.1 nM.

On to `CCCCN(C)C(=O)[C@@H](NC(=O)C12CCC(NC(=O)c3ccccc3-c3ccc(C(C)C)cc3)(CC1)CC2)c1ccccc1` [Compound 103], for which the IC50 turned out to be 26.1 nM.

In the case of `CC(C)c1ccc(-c2ccccc2C(=O)NC23CCC(C(=O)N[C@H](C(=O)N4CCCC4)c4ccccc4)(CC2)CC3)cc1` [Compound 104], the IC50 worked out at 3.5 nM.

Take `CC(C)c1ccc(-c2ccccc2C(=O)NC23CCC(C(=O)N[C@H](C(=O)N(C)Cc4ccc(F)cc4)c4ccccc4)(CC2)CC3)cc1` [Compound 105]: the IC50 stood at 13.4 nM.

As for `CC(C)CN(C)C(=O)[C@@H](NC(=O)C12CCC(NC(=O)c3ccccc3-c3ccc(C(C)C)cc3)(CC1)CC2)c1ccccc1` [Compound 106], the IC50 stood at 40.2 nM.

As for `Cc1cccc(C(=O)NC23CCC(C(=O)N[C@H](C(=O)N4CCCC4)c4ccccc4)(CC2)CC3)c1-c1ccc(C(C)(C)C)cc1` [Compound 107], the IC50 came out at 1.7 nM.

Consider `Cc1cccc(C(=O)NC23CCC(C(=O)N[C@H](C(=O)N(C)Cc4ccc(F)cc4)c4ccccc4)(CC2)CC3)c1-c1ccc(C(C)(C)C)cc1` [Compound 108], for which the IC50 turned out to be 1.2 nM.

For the compound `COc1cccc(C(=O)NC23CCC(C(=O)N[C@H](C(=O)N4CCCC4)c4ccccc4)(CC2)CC3)c1-c1ccc(C(C)(C)C)cc1` [Compound 109], the IC50 amounted to 8.2 nM.

Turning to `COc1cccc(C(=O)NC23CCC(C(=O)N[C@H](C(=O)N(C)Cc4ccc(F)cc4)c4ccccc4)(CC2)CC3)c1-c1ccc(C(C)(C)C)cc1` [Compound 110], the IC50 worked out at 14.6 nM.

With `COc1cccc(C(=O)NC23CCC(C(=O)N[C@H](C(=O)N(C)Cc4ccc(F)cc4)c4ccccc4)(CC2)CC3)c1-c1ccc(C(C)C)cc1` [Compound 111], the IC50 came to 110 nM.

For `Cc1cccc(C(=O)NC23CCC(C(=O)N[C@H](C(=O)N4CCCC4)c4ccccc4)(CC2)CC3)c1-c1ccc(C(C)C)cc1` [Compound 113], the IC50 stood at 4.4 nM.

In the case of `Cc1cccc(C(=O)NC23CCC(C(=O)N[C@H](C(=O)N(C)Cc4ccc(F)cc4)c4ccccc4)(CC2)CC3)c1-c1ccc(C(C)C)cc1` [Compound 114], the IC50 was 3.5 nM.

Take `CCCCN(C)C(=O)[C@@H](NC(=O)C12CCC(NC(=O)c3cccc(OC)c3-c3ccc(C(C)C)cc3)(CC1)CC2)c1ccccc1` [Compound 115]: the IC50 came to 99.3 nM.

Still in this assay, the particulars now being: Table 6, assay of Example 2; read-out: IC50 ApoB Assay.
For `Cc1cccc(C(=O)NCC23CCC(C(=O)N[C@H](C(=O)N4CCCC4)c4ccccc4)(CC2)CC3)c1-c1ccc(C(C)(C)C)cc1` [Compound 65], the IC50 was 4.5 nM.

For the compound `Cc1cccc(C(=O)NC23CCC(C(=O)N[C@H](C(=O)N4CCCC4)c4ccccc4)(CC2)CC3)c1-c1ccc(C(C)(C)C)cc1` [Compound 107], the IC50 was determined as 1.5 nM.
